Laboratory results: US20230255954A1, “INTERLEUKIN 33 (IL-33) INHIBITION FOR TREATMENT OF CANCER, FIBROSIS AND INFLAMMATION” (The General Hospital Corporation, priority 2020, published 2023)

What was measured:
p-IRF3 = experiment: Poly (I:C) induced p-IRF3 expression in Pam212 cells; assay type: cell-based, mouse; conditions: Pam212 cells with Poly (I:C)
Protocol: Cell lysates were prepared in LIPA buffer (Thermo Fisher Scientific, catalog no. 89900) consisting of 1× protease inhibitor cocktail, EDTA-free (Thermo Fisher Scientific, catalog no. A32955). Mice tissues were meshed and lysed by 0.1% TWEEN-(Millipore Sigma, catalog no. P1379) in PBS. Mice tissues were frozen by liquid nitrogen and thaw by incubation at 37° C. for further lysis. Cell lysates were sonicated for […], and then they were centrifugated at 13,200 rpm. After checking the protein concentration of each sample, the same amount of proteins was loaded into Mini-PROTEIN TGX™ Gels (BIO-RAD, Hercules, Calif., catalog no. 456-1083 or 456-1086) with 1× Tris/Glycine/SDS buffer (BIO-RAD, catalog no. 1610732). A few minutes later (according to protein size), they were transferred to Immobilon-P membrane (Millipore Sigma, catalog no. IPVH00010) with Transfer buffer (Boston Bioproducts, Ashland, Mass., catalog no. BP-190). Then, they were incubated 3% bovine serum albumin (Thermo Fisher Scientific, catalog no. BP1600) or 5% Skim milk (BD biosciences, San Jose, Calif., catalog no. 232100) in 1× Tris-Buffered Saline (Boston Bioproducts, catalog no. BM301X) containing 0.1% TWEEN, called TBS-T for 30 min. After the membrane was washed with TBS-T, they were subjected to immunoblot with proper antibodies for overnight at 4° C. […]

[1] = system: Caerulein-injected mouse pancreas; experiment: Caerulein chronic pancreatitis model with pitavastatin; assay type: in vivo
Protocol: Mice were weighed and injected with 50 μg/kg caerulein (BACHEM, Torrance, Calif., catalog no. 4030451) in 100 μL of PBS intraperitoneally every hour for 6 hours, three days per week for 3 weeks and mice were harvested.
1 mM of pitavastatin was dissolved in DMSO for stock, and then 100 uM was dissolved in PBS with caerulein for mice injection. Mice were injected with caerulein.
Tissue samples were collected and fixed in 4% paraformaldehyde (Millipore Sigma, catalog no. P6148) overnight at 4° C. Next, tissues were dehydrated in ethanol, processed and embedded in paraffin. 5 μm sections paraffin-embedded tissues were placed on slides, deparaffinized and stained with H&E or toluidine blue (for mast cell detection). For immunohistochemistry, antigen retrieval was performed in 500 μL of antigen unmasking solution (VECTOR Laboratories, Burlingame, Calif., catalog no. H3300) diluted in 50 mL water using Cuisinart pressure cooker for 20 min at high pressure. Slides were washed three times for three minutes each in 1×TBS with 0.025% Triton X-100. Sections were blocked with 1% bovine serum albumin (Thermo Fisher Scientific, catalog no. BP1600) and 5% goat serum (Millipore Sigma, catalog no. G9023) for 1 hour. Slides were stained overnight at 4° C. with a primary antibody diluted in TBS containing 1% BSA (Appendix Table S2). […]

Compound: O=C(O)C[C@H](O)C[C@H](O)/C=C/c1c(C2CC2)nc2ccccc2c1-c1ccc(F)cc1 [pitavastatin]
- level of p-IRF3 (p-IRF3): decreased
- severity of pancreatitis ([1]; 100 uM pitavastatin in PBS injected with caerulein, vs severe pancreatitis in caerulein plus carrier): mild pancreatitis
- inflammatory cell infiltrates in pancreas (H&E) ([1]; Caerulein-injected mouse pancreas with or without pitavastatin): reduction
